# Assay results: patent US20200277251A1, “NOVEL ANTIBACTERIAL COMPOUNDS AND METHODS OF MAKING AND USING SAME” (BROWN UNIVERSITY, priority 2017, published 2020)
# Tests used:
# Bacillus subtilis = experiment: Resazurin microtiter MIC assay, activity against Bacillus subtilis; format: cell-based
# Procedure: Bacillus subtilis ATCC 11775 was plated on agar from a 20% glycerol stock solution stored at −80° C. Inoculated plates were then incubated at 37° C. under aerobic conditions for 16 hours. Single cultures were transferred to Nutrient Broth (NB) and cultured for 16 hours under the same conditions. […] Second passage cultures were standardized to O.D.−600 nm=1.0. The resazurin microtiter assay procedure described by Palomino and coworkers is used for assessing antimicrobial activity (Palomino, 2002, Antimicrob. Agents Chemother. 46:2720-2722). The assay is performed in LB broth. Resazurin sodium salt powder is prepared in distilled water and filter sterilized at […] (w/v) for MIC assays and at 0.01%8.55). (w/v) for single concentration assays. Compounds are first screened in MIC assays to assess whether growth inhibition is dependent on inhibitor concentration. The plates are incubated for 30 min under aerobic conditions. Growth controls containing no inhibitory compound, sterility controls without inoculation, and controls containing a known antibiotic, chloramphenicol, are also included. The innoculum was prepared from second passage cultures in Nutrient Broth (NB) and standardized to O.D.−600 nm=1.0 and the wells inoculated with a 1:20 dilution. Serial two-fold dilutions of each compound in 100 μL of medium are prepared directly in 96 well plates at concentrations ranging from 250 μM to 7 μM. After incubation 30 μL of resazurin solution is added to each well and incubated for 30 min. A change in color from blue to pink indicates reduction of resazurin, and therefore bacterial growth. Minimum inhibitory concentration (MIC) was determined as the lowest drug concentration that prevented the color change from blue to pink. Inhibition was quantified by observation of color change. Further studies were carried out at a single inhibitor concentration of 250 μM. The plates were incubated for 4 h under aerobic conditions with the same controls. After incubation 30 μL of resazurin solution was added to each well and incubated for 60 min. Inhibition was quantified by fluorescence readings from plate reader SAFIRE, Firmware: V 2.20 08/02 Safire. Excitation wavelength set to 560 nm, emission wavelength set to 590 nm. Well containing dye and non-inoculated cells was used as gain set. Plates are held at 37° C. and fluorescence measurements are taken at 0, 5, 10, 20, 30, and 60 min after addition of dye. Lower fluorescence values correlate to greater degrees of inhibition. Compounds are tested […] for their capacity to inhibit B. subtilis growth. […] Briefly, second-passage bacteria are incubated with inhibitor in a 96-well plate for four hours, then resazurin dye is added and color/fluorescence change is observed. […] Resorufin is also fluorescent and can be measured by a plate-reader.
# Streptococcus pneumoniae = experiment: Resazurin microtiter MIC assay, activity against Streptococcus pneumoniae; format: cell-based
# Procedure: The resazurin microtiter assay procedure described by Palomino and coworkers is used for assessing antimicrobial activity (Palomino, 2002, Antimicrob. Agents Chemother. 46:2720-2722). The assay is performed in LB broth. Resazurin sodium salt powder is prepared in distilled water and filter sterilized at […] (w/v) for MIC assays and at 0.01%8.55). (w/v) for single concentration assays. Compounds are first screened in MIC assays to assess whether growth inhibition is dependent on inhibitor concentration. The plates are incubated for 30 min under aerobic conditions. Growth controls containing no inhibitory compound, sterility controls without inoculation, and controls containing a known antibiotic, chloramphenicol, are also included. The innoculum was prepared from second passage cultures in Nutrient Broth (NB) and standardized to O.D.−600 nm=1.0 and the wells inoculated with a 1:20 dilution. Serial two-fold dilutions of each compound in 100 μL of medium are prepared directly in 96 well plates at concentrations ranging from 250 μM to 7 μM. After incubation 30 μL of resazurin solution is added to each well and incubated for 30 min. A change in color from blue to pink indicates reduction of resazurin, and therefore bacterial growth. Minimum inhibitory concentration (MIC) was determined as the lowest drug concentration that prevented the color change from blue to pink. Inhibition was quantified by observation of color change. Further studies were carried out at a single inhibitor concentration of 250 μM. The plates were incubated for 4 h under aerobic conditions with the same controls. After incubation 30 μL of resazurin solution was added to each well and incubated for 60 min. Inhibition was quantified by fluorescence readings from plate reader SAFIRE, Firmware: V 2.20 08/02 Safire. Excitation wavelength set to 560 nm, emission wavelength set to 590 nm. Well containing dye and non-inoculated cells was used as gain set. Plates are held at 37° C. and fluorescence measurements are taken at 0, 5, 10, 20, 30, and 60 min after addition of dye. Lower fluorescence values correlate to greater degrees of inhibition.
# E. coli = conditions: cited from earlier work
SMILES,MIC (Bacillus subtilis) [µM],MIC (Streptococcus pneumoniae; 60 uM) [µM],MIC (Streptococcus pneumoniae; same MIC in mass units) [µg/mL],effect on the viability of E. coli (E. coli)
CCCCNC(=O)C(C1CCCCC1)N(C(=O)c1ccccc1OC)C1CCCCC1 (stereo not drawn) [qgka],50,,,
O=C(NC1CCCCC1)C(C1CCCCC1)N(C(=O)c1ccccc1C(F)(F)F)C1CCCCC1 (stereo not drawn) [vgkc],50,5,2.46,
CC1=N[C@@H]2[C@@H](O)[C@H](O)[C@@H](CO)O[C@@H]2S1 [NAG-thiazoline],,,,no effect
C#CCN(C(=O)c1ccccc1C(F)(F)F)C(C(=O)NCCCC)C1CCCCC1 (stereo not drawn) [vgba],,50,21.1,
CCCCNC(=O)C(C1CCCCC1)N(C(=O)c1ccccc1C)C1CCCCC1 (stereo not drawn) [wgka],50,,,
CCCCNC(=O)C(C1CCCCC1)N(C(=O)c1ccccc1C)c1ccccc1 (stereo not drawn) [wgqa],,50,20.3,
CCCCNC(=O)C(C1CCCCC1)N(C(=O)c1ccccc1C(F)(F)F)C1CCCCC1 (stereo not drawn) [vgka],50,,,
CCCCNC(=O)C(C1CCCCC1)N(C(=O)c1ccccc1OC(C)=O)C1CCCCC1 (stereo not drawn) [ygka],,5,2.33,
CCCCNC(=O)C(C1CCCCC1)N(C(=O)c1ccccc1SC)c1ccccc1 (stereo not drawn) [sgqa],,50,21.2,
